In patent US9629856B2, “Compositions and methods for the treatment of skin diseases and disorders using antimicrobial peptide sequestering compounds” (Anteis SA, priority 2010, dated 2017):

Tested on: Rosacea patients
Experiment: Clinical study with rosacea patients
Settings: human, in vivo
Experimental: The following assessments or evaluations were performed before the treatment (Visit 1) and during the treatment period after about 2 weeks (Visit 2), about 4 weeks (Visit 3) and about 8 weeks (Visit 4): Tolerability including burning/stinging/tingling, pruritis, dryness, scaling/peeling and atrophy were evaluated of the face by the investigator (i.e., dermatologist) according to the following scale: 0=none, 1=mild, 2=moderate, 3=severe. Furthermore, any adverse events experienced by subject during the study period, whether related to the treatment or not, were recorded. Assessment of overall skin conditions of the face was performed by the investigator (i.e., dermatologist) according to the following scoring system: [table] Count of total number of inflammatory lesions (papules and pustules) on the face by the investigator (i.e., dermatologist). Evaluation of the severity of both redness/erythema and telangiectasia on the face by the investigator (i.e., dermatologist) according to the following scale: [table] […] Clinical photographs were taken at all visits utilizing standardized conditions for all subjects. […] In case possible, cross-polarized, parallel-polarized and visible light images were acquired along with both blue fluorescence and ultraviolet fluorescence images.

With “Hydroxypropyl Starch Phosphate [Structure XL]” the immunotoxic effects was “no evidence of immunotoxic effects”.
